Laboratory results reported in patent publication US9005575B2, “Arg-Gly-Asp-conjugated alpha-melanocyte stimulating hormone hybrid peptide for use in diagnosing and treating melanoma, including metastatic melanoma and methods related to same” (STC.UNM, priority 2009, dated 2015).
Positions of bridges follow the written chain, without caps; N, C: chain ends. Non-standard residues stand in square brackets, D forms with d. Residues, ends and D or L forms follow the SMILES beside them.

System: B16/F1 melanoma
Test: Biodistribution in B16/F1 melanoma-bearing C57 mice
Format: in vivo
Details: for Tumor uptake blocked by NDP-MSH: 6.1 nmol of NDP-MSH; for Tumor uptake decreased (blocked) by RGD co-injection: 3.5 μg (6.1 nmol) of RGD; for Tumor uptake with NDP-MSH co-injection as % of the tumor uptake without: 10 μg (6.1 nmol) NDP-MSH, 2 h after dose administration
Protocol: All the animal studies were conducted in compliance with Institutional Animal Care and Use Committee approval. The pharmacokinetics of ^99mTc-RGD-Lys-(Arg^11)CCMSH was determined in B16/F1 melanoma-bearing C57 female mice (Harlan, Indianapolis, Ind.). C57 mice were subcutaneously inoculated on the right flank with 1×10^6 B16/F1 cells. The weight of tumors reached approximately 0.2 g 10 days post cell inoculation. Each melanoma-bearing mouse was injected with 0.037 MBq of ^99mTc-RGD-Lys-(Arg^11)CCMSH via the tail vein. Groups of 5 mice were sacrificed at 0.5, 2, 4 and 24 h post-injection, and tumors and organs of interest were harvested, weighed and counted. Blood values were taken as 6.5% of the whole-body weight. The MC1 receptor specificity of the tumor uptake was determined at 2 h post-injection by co-injecting ^99mTc-RGD-Lys-(Arg^11)CCMSH with 10 μg (6.1 nmol) of unlabeled NDP-MSH, a linear α-MSH peptide analogue with picomolar affinity for the MC1 receptors present on murine melanoma cells. The co-injection of 3.5 μg (6.1 nmol) of RGD peptide was performed to determine the αvβ3 integrin specificity of the tumor uptake 2 h post-injection. Statistical analysis was performed using the Student's t-test for unpaired data.
All the animal studies were conducted in compliance with Institutional Animal Care and Use Committee approval. The pharmacokinetics of ^99mTc-RGD-Arg-(Arg^11)CCMSH was determined in B16/F1 melanoma-bearing C57 female mice (Harlan, Indianapolis, Ind.). C57 mice were subcutaneously inoculated on the right flank with 1×10^6 B16/F1 cells. The weight of tumors reached approximately 0.2 g 10 days post cell inoculation. Each melanoma-bearing mouse was injected with 0.037 MBq of ^99mTc-RGD-Arg-(Arg^11)CCMSH via the tail vein. Groups of 5 mice were sacrificed at 0.5, 2, 4 and 24 h post-injection, and tumors and organs of interest were harvested, weighed and counted. Blood values were taken as 6.5% of the whole-body weight. The MC1 receptor specificity of the tumor uptake was determined at 2 h post-injection by co-injecting ^99mTc-RGD-Arg-(Arg^11)CCMSH with 10 μg (6.1 nmol) of unlabeled NDP-MSH. The co-injection of 3.5 μg (6.1 nmol) of RGD peptide was performed to determine the αvβ3 integrin specificity of the tumor uptake at 2 h post-injection.

## CC(C)[C@H](NC(=O)[C@@H]1CCCN1C(=O)[C@H](CCCNC(=N)N)NC(=O)[C@H](CS)NC(=O)[C@H](Cc1c[nH]c2ccccc12)NC(=O)[C@H](CCCNC(=N)N)NC(=O)[C@@H](Cc1ccccc1)NC(=O)[C@H](Cc1c[nH]cn1)NC(=O)[C@H](CCC(=O)O)NC(=O)[C@H](CS)NC(=O)[C@H](CS)NC(=O)[C@H](CCCCN)NC(=O)[C@@H]1CC(=O)N[C@@H](CCCNC(=N)N)C(=O)NCC(=O)N[C@@H](CC(=O)O)C(=O)N[C@H](Cc2ccc(O)cc2)C(=O)N1)C(N)=O [^99mTc-RGD-Lys-(Arg^11)CCMSH, metal not drawn] (RGD[dY]DKCCEH[dF]RWCRPV-NH2; lactam N-5)
2 h post-injection
  Tumor uptake blocked by NDP-MSH: 87.8%
  Tumor uptake decreased (blocked) by RGD co-injection: 29.2%
  Tumor uptake with NDP-MSH co-injection as % of the tumor uptake without: 12.2%
4 h post-injection
  Kidneys, Percentage Injected Dose/gram: 69.29 ± 14.34 % ID/g
  Renal uptake value, times that of ^99mTc-(Arg^11)CCMSH: 12.5 times
  Tumor uptake value as % of the tumor uptake value 2 h post-injection: 85%
  Tumor uptake value, times that of ^99mTc-(Arg^11)CCMSH: 1.1 times
24 h post-injection
  Tumor uptake value as % of the tumor uptake value 2 h post-injection: 51%
  Tumor uptake value, times that of ^99mTc-(Arg^11)CCMSH: 2.3 times
mouse, in vivo
  Renal uptake value, times that of ^188Re-dLys-(Arg^11)CCMSH: 1.2 times

## CC(C)[C@H](NC(=O)[C@@H]1CCCN1C(=O)[C@H](CCCNC(=N)N)NC(=O)[C@H](CS)NC(=O)[C@H](Cc1c[nH]c2ccccc12)NC(=O)[C@H](CCCNC(=N)N)NC(=O)[C@@H](Cc1ccccc1)NC(=O)[C@H](Cc1c[nH]cn1)NC(=O)[C@H](CCC(=O)O)NC(=O)[C@H](CS)NC(=O)[C@H](CS)NC(=O)[C@H](CCCNC(=N)N)NC(=O)[C@@H]1CC(=O)N[C@@H](CCCNC(=N)N)C(=O)NCC(=O)N[C@@H](CC(=O)O)C(=O)N[C@H](Cc2ccc(O)cc2)C(=O)N1)C(N)=O [^99mTc-RGD-Arg-(Arg^11)CCMSH, metal not drawn] (RGD[dY]DRCCEH[dF]RWCRPV-NH2; lactam N-5)
2 h post-injection
  Tumor uptake blocked by NDP-MSH: 90.9%
  Tumor uptake decreased (blocked) by RGD co-injection: 21.2%
  Renal uptake value as % of that of ^99mTc-RGD-Lys-(Arg^11)CCMSH: 64.08%
  Tumor uptake value, times that of ^99mTc-RGD-Lys-(Arg^11)CCMSH: 1.44 times
  Tumor uptake with NDP-MSH co-injection as % of the tumor uptake without: 9.15%
0.5, 2, 4 and 24 h post-injection
  Renal uptake values as % of those of ^99mTc-RGD-Lys-(Arg^11)CCMSH: 40.14-64.08%
0.5 h post-injection
  Renal uptake value as % of that of ^99mTc-RGD-Lys-(Arg^11)CCMSH: 53.65%
  Tumor uptake value, times that of ^99mTc-RGD-Lys-(Arg^11)CCMSH: 1.27 times
4 h post-injection
  Renal uptake value as % of that of ^99mTc-RGD-Lys-(Arg^11)CCMSH: 52.89%
  Tumor uptake value as % of the tumor uptake value 2 h post-injection: 75%
  Tumor uptake value, times that of ^99mTc-RGD-Lys-(Arg^11)CCMSH: 1.28 times
24 h post-injection
  Renal uptake value as % of that of ^99mTc-RGD-Lys-(Arg^11)CCMSH: 40.14%
  Tumor/kidney uptake ratio, times that of ^99mTc-RGD-Lys-(Arg^11)CCMSH: 2.21 times
